Like-named read-outs stand apart in the source and are kept apart here.
Experiments:
[1] = Regional brain distribution of radioactivity after intravenous administration (Table 4); assay type: in vivo, Sprague-Dawley rats; conditions: iv, rat, i.v., mean of three rats; for tissue uptake at 0.5 h: 30 min; for tissue uptake at 1 h: 60 min; for tissue uptake at 2 h: 120 min
Description: (§1) Regional Distribution of Radioactivity in Tissues of Unfasted
(§2) Male Sprague-Dawley Rats Following Intravenous Administration
(§3) iodophenyl)pyrrolo[2,1-a]isoquinoline
(§4) The cerebellum contains a very low density of serotonin transporter sites and is taken as "background" in this analysis of regional uptake.

serotonin transporter = test: as above; assay type: in vivo, Sprague-Dawley rats; conditions: rat, i.v.
Description: as §1, §2, §3, §4

[2] = Regional brain uptake with and without preblocking by paroxetine or GBR 12909 (Table 5); assay type: in vivo, Sprague Dawley rats; conditions: rat, iv, 60 min
Procedure: (§5) Regional Uptake (% dose/gram) and Ratios of
(§6) 95% ee(6S, 10bR)-I-McN in Sprague Dawley Rats
(§7) (n = 4) at 60 Min Following Preblocking
(§8) (5 mg/kg i.v. 15 min prior to radioligand)

[3] = test system: serotonin transporter; dopamine transporter; test: as above; assay type: in vivo, Sprague Dawley rats; conditions: rat, 60 min
Procedure: as §5, §6, §7, §8

[4] = molecular target: T1, human serotonin transporter (Homo sapiens, UniProt P31645); test: Binding site inhibition in HEK-293 cell membranes transfected with human serotonin transporter ([3H]Citalopram)
T1 construct: expressed in transfected cells; host or cells: HEK-293, stably transfected
T1 sequence (P31645 whole entry): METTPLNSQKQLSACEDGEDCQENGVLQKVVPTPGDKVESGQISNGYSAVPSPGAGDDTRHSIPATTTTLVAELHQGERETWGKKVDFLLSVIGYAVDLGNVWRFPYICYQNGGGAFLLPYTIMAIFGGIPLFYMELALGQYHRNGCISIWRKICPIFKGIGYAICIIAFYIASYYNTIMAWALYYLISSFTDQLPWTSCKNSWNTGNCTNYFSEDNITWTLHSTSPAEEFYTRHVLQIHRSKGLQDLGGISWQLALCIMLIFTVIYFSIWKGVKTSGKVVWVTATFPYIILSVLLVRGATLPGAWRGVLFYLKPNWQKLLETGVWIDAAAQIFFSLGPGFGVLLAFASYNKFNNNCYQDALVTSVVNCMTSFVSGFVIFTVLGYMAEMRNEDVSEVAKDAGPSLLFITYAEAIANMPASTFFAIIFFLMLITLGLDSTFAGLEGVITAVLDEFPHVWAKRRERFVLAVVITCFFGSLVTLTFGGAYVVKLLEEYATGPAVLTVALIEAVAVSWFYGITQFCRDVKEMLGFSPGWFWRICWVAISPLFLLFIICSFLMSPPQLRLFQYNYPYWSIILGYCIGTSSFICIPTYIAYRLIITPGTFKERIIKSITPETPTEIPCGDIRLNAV

[5] = Tissue distribution of radioactivity after intravenous administration (Table 6); assay type: in vivo, Sprague Dawley rats; conditions: rat, i.v., mean (range) of 4 rats; for tissue uptake at 0.5 h: 30 min; for tissue uptake at 1 h: 60 min; for tissue uptake at 2 h: 120 min
Description: Distribution of Radioactivity in Tissues of Unfasted Male
Sprague Dawley Rats Following Intravenous Administration
of (+)-Trans-1,2,3,5,6,10b-hexahydro-6-
[4-iodophenyl]-pyrrolo[2,1-a]isoquinoline
Mean % Injected Dose/Gram (Range of 4 rats +/SD)

[6] = cerebellum, read-out: Cerebellum, mean % injected dose/gram
[7] = cortex, read-out: Cortex, mean % injected dose/gram
[8] = hypothalamus, read-out: Hypothalamus, mean % injected dose/gram
[9] = prefrontal cortex, read-out: Prefrontal Cortex, mean % injected dose/gram
[10] = striatum, read-out: Striatum, mean % injected dose/gram
[11] = dopamine blocker GBR 12909 5 mg/kg i.v. 15 min prior
[12] = serotonin blocker paroxetine 5 mg/kg i.v. 15 min prior
[13] = HEK-293 cells, human serotonin transporter, vs. [3H]Citalopram, read-out: 5-HT Ki
[14] = blood, read-out: Blood, mean % injected dose/gram
[15] = brain, read-out: Brain, mean % injected dose/gram
[16] = heart, read-out: Heart, mean % injected dose/gram
[17] = kidney, read-out: Kidney, mean % injected dose/gram
[18] = liver, read-out: Liver, mean % injected dose/gram
[19] = lung, read-out: Lung, mean % injected dose/gram
[20] = muscle, read-out: Muscle, mean % injected dose/gram
[21] = spleen, read-out: Spleen, mean % injected dose/gram
[22] = thyroid, read-out: Thyroid, mean % injected dose/gram

`[123I]c1ccc([C@@H]2CN3CCC[C@@H]3c3ccccc32)cc1` [(+)-[^123 I]6, (+)-(6S, 10bR)-1,2,3,5,6,10b-hexahydro-6-(4'-[^123 I]iodophenyl)pyrrolo[2,1-a]-isoquinoline] gave a tissue uptake at 5 min [1, 6] of 1.23 %ID/g, a tissue uptake at 0.5 h [1, 6] of 0.78 %ID/g and a tissue uptake at 1 h [1, 6] of 0.58 %ID/g. It also gave a tissue uptake at 2 h [1, 6] of 0.39 %ID/g, a tissue uptake at 5 min [1, 7] of 2.06 %ID/g and a tissue uptake at 0.5 h [1, 7] of 1.6 %ID/g. For the same molecule, the tissue uptake at 1 h [1, 7] was 0.89 %ID/g, the tissue uptake at 2 h [1, 7] was 0.74 %ID/g and the tissue uptake at 5 min [1, 8] was 3.69 %ID/g. It also gave a tissue uptake at 0.5 h [1, 8] of 3.59 %ID/g, a tissue uptake at 1 h [1, 8] of 3.73 %ID/g and a tissue uptake at 2 h [1, 8] of 2.85 %ID/g. For the same molecule, the tissue uptake at 5 min [1, 9] was 5 %ID/g, the tissue uptake at 0.5 h [1, 9] was 3.72 %ID/g and the tissue uptake at 1 h [1, 9] was 3.13 %ID/g. The tissue uptake at 2 h [1, 9] was 2.25 %ID/g, the tissue uptake at 5 min [1, 10] was 3.43 %ID/g and the tissue uptake at 0.5 h [1, 10] was 2.46 %ID/g. The tissue uptake at 1 h [1, 10] was 2.28 %ID/g, the tissue uptake at 2 h [1, 10] was 2.06 %ID/g and the “accumulation in brain regions” value (serotonin transporter) was “greatest accumulation in brain regions rich in serotoninergic neurons”. For the same molecule, the Cortex/Cereb ratio (serotonin transporter; 5 min) was 1.7, the Hypothal/Cereb ratio (serotonin transporter; 5 min) was 3.0 and the PrefCx/Cereb ratio (serotonin transporter; 5 min) was 4.1. It also gave a Striatum/Cereb ratio (serotonin transporter; 5 min) of 2.9, a Cortex/Cereb ratio (serotonin transporter; 30 min) of 2.1 and a Hypothal/Cereb ratio (serotonin transporter; 30 min) of 4.6. For the same molecule, the PrefCx/Cereb ratio (serotonin transporter; 30 min) was 4.8, the Striatum/Cereb ratio (serotonin transporter; 30 min) was 3.2 and the Cortex/Cereb ratio (serotonin transporter; 60 min) was 1.6. It also gave a Hypothal/Cereb ratio (serotonin transporter; 60 min) of 6.5, a PrefCx/Cereb ratio (serotonin transporter; 60 min) of 5.4 and a Striatum/Cereb ratio (serotonin transporter; 60 min) of 4.0. For the same molecule, the Cortex/Cereb ratio (serotonin transporter; 120 min) was 1.9, the Hypothal/Cereb ratio (serotonin transporter; 120 min) was 7.3 and the PrefCx/Cereb ratio (serotonin transporter; 120 min) was 5.8. It also gave a Striatum/Cereb ratio (serotonin transporter; 120 min) of 5.3.
`[123I]c1ccc([C@@H]2CN3CCC[C@@H]3c3ccccc32)cc1` [95% ee(6S, 10bR)-I-McN, [^123 I](+)-Trans-1,2,3,5,6,10b-hexaydro-6-[4-iodophenyl]-pyrrolo[2,1-a]isoquinoline] showed a tissue uptake at 1 h ([2]; cerebellum, 5 mg/kg, dopamine blocker GBR 12909 5 mg/kg i.v. 15 min prior, read-out: Cerebellum uptake) of 0.55 %ID/g, a tissue uptake at 1 h ([2]; cerebellum, no blocker, read-out: Cerebellum uptake) of 0.46 %ID/g and a tissue uptake at 1 h ([2]; cerebellum, serotonin blocker paroxetine 5 mg/kg i.v. 15 min prior, read-out: Cerebellum uptake) of 0.43 %ID/g. The tissue uptake at 1 h ([2]; cortex, 5 mg/kg, dopamine blocker GBR 12909 5 mg/kg i.v. 15 min prior, read-out: Cortex uptake) was 2.1 %ID/g, the tissue uptake at 1 h ([2]; cortex, no blocker, read-out: Cortex uptake) was 1.88 %ID/g and the tissue uptake at 1 h ([2]; cortex, serotonin blocker paroxetine 5 mg/kg i.v. 15 min prior, read-out: Cortex uptake) was 1.8 %ID/g. The tissue uptake at 1 h ([2]; hypothalamus, 5 mg/kg, dopamine blocker GBR 12909 5 mg/kg i.v. 15 min prior, read-out: Hypothalamus uptake) was 3.62 %ID/g, the tissue uptake at 1 h ([2]; hypothalamus, no blocker, read-out: Hypothalamus uptake) was 3.75 %ID/g and the tissue uptake at 1 h ([2]; hypothalamus, serotonin blocker paroxetine 5 mg/kg i.v. 15 min prior, read-out: Hypothalamus uptake) was 2 %ID/g. It also gave a tissue uptake at 1 h ([2]; prefrontal cortex, 5 mg/kg, dopamine blocker GBR 12909 5 mg/kg i.v. 15 min prior, read-out: Prefrontal Cortex uptake) of 2.8 %ID/g, a tissue uptake at 1 h ([2]; prefrontal cortex, no blocker, read-out: Prefrontal Cortex uptake) of 2.3 %ID/g and a tissue uptake at 1 h ([2]; prefrontal cortex, serotonin blocker paroxetine 5 mg/kg i.v. 15 min prior, read-out: Prefrontal Cortex uptake) of 1.98 %ID/g. The tissue uptake at 1 h ([2]; striatum, 5 mg/kg, dopamine blocker GBR 12909 5 mg/kg i.v. 15 min prior, read-out: Striatum uptake) was 1.36 %ID/g, the tissue uptake at 1 h ([2]; striatum, no blocker, read-out: Striatum uptake) was 2.21 %ID/g and the tissue uptake at 1 h ([2]; striatum, serotonin blocker paroxetine 5 mg/kg i.v. 15 min prior, read-out: Striatum uptake) was 1.39 %ID/g. It also gave a Cortex/Cereb ratio [3, 11] of 3.82, a Hypthal/Cereb ratio [3, 11] of 6.6 and a PrefCx/Cereb ratio [3, 11] of 5.1. It also gave a Striatum/Cereb ratio [3, 11] of 2.47, a Cortex/Cereb ratio ([3]; no blocker) of 4.08 and a Hypthal/Cereb ratio ([3]; no blocker) of 8.15. The PrefCx/Cereb ratio ([3]; no blocker) was 5.0, the Striatum/Cereb ratio ([3]; no blocker) was 4.8 and the Cortex/Cereb ratio [3, 12] was 4.18. It also gave a Hypthal/Cereb ratio [3, 12] of 4.65, a PrefCx/Cereb ratio [3, 12] of 4.6 and a Striatum/Cereb ratio [3, 12] of 3.2.
`FCCSc1ccc([C@@H]2CN3CCC[C@@H]3c3ccccc32)cc1` (single isomer, unassigned) [95% ee (+) SCH2 CH2 F] showed a Ki [4, 13] of 2.6 nM.
`Ic1ccc([C@@H]2CN3CCC[C@@H]3c3ccccc32)cc1` [(+)-Trans-1,2,3,5,6,10b-hexahydro-6-[4-iodophenyl]-pyrrolo[2,1-a]isoquinoline] showed a tissue uptake at 0.5 h [5, 14] of 0.24 %ID/g, a tissue uptake at 1 h [5, 14] of 0.3 %ID/g and a tissue uptake at 2 h [5, 14] of 0.21 %ID/g. For the same molecule, the tissue uptake at 0.5 h [5, 15] was 0.85 %ID/g, the tissue uptake at 1 h [5, 15] was 0.7 %ID/g and the tissue uptake at 2 h [5, 15] was 0.43 %ID/g. For the same molecule, the tissue uptake at 0.5 h [5, 16] was 0.55 %ID/g, the tissue uptake at 1 h [5, 16] was 0.51 %ID/g and the tissue uptake at 2 h [5, 16] was 0.47 %ID/g. The tissue uptake at 0.5 h [5, 17] was 0.84 %ID/g, the tissue uptake at 1 h [5, 17] was 0.66 %ID/g and the tissue uptake at 2 h [5, 17] was 0.79 %ID/g. It also gave a tissue uptake at 0.5 h [5, 18] of 1.62 %ID/g, a tissue uptake at 1 h [5, 18] of 1.26 %ID/g and a tissue uptake at 2 h [5, 18] of 1.18 %ID/g. It also gave a tissue uptake at 0.5 h [5, 19] of 1.53 %ID/g, a tissue uptake at 1 h [5, 19] of 1.28 %ID/g and a tissue uptake at 2 h [5, 19] of 0.92 %ID/g. The tissue uptake at 0.5 h [5, 20] was 0.27 %ID/g, the tissue uptake at 1 h [5, 20] was 0.26 %ID/g and the tissue uptake at 2 h [5, 20] was 0.27 %ID/g. For the same molecule, the tissue uptake at 0.5 h [5, 21] was 1 %ID/g, the tissue uptake at 1 h [5, 21] was 0.74 %ID/g and the tissue uptake at 2 h [5, 21] was 0.54 %ID/g. The tissue uptake at 0.5 h [5, 22] was 1.07 %ID/g, the tissue uptake at 1 h [5, 22] was 1.5 %ID/g and the tissue uptake at 2 h [5, 22] was 1.04 %ID/g.
`FCCc1ccc([C@@H]2CN3CCC[C@@H]3c3ccccc32)cc1` (relative stereo) [racemic CH2 CH2 F] showed a Ki [4, 13] of 13 nM.
`FCCSc1ccc([C@@H]2CN3CCC[C@@H]3c3ccccc32)cc1` (single isomer, unassigned) [95% ee (-) SCH2 CH2 F] gave a Ki [4, 13] of 6.4 nM.
With `C=Cc1ccc([C@@H]2CN3CCC[C@@H]3c3ccccc32)cc1` (relative stereo) [racemic CH=CH2] the Ki [4] was 3.7 nM.
Work on `FCCSc1ccc([C@@H]2CN3CCC[C@@H]3c3ccccc32)cc1` (relative stereo) [racemic SCH2 CH2 F] yielded a Ki [4, 13] of 5.7 nM.

From patent US6162417A, “Pyrrolo isoquinolines” (Emory University, priority 1998, dated 2000)
